Data set [1] concerns DENV-2 16681 strain labeled with eGFP. The data set is described as follows: DENV-2 antiviral assay (eGFP fluorescence, Vero cells). Format: cell-based, Dengue virus. The following applies: Dengue virus, DENV2, Vero, 72 h, DENV-2 16681 eGFP, MOI 0.5, 3 days. How it is done: The antiviral activity of all the compounds of the invention was tested against DENV-2 16681 strain which was labeled with enhanced green fluorescent protein (eGPF). The culture medium consists of minimal essential medium supplemented with 2% of heat-inactivated fetal calf serum, 0.04% gentamycin (50 mg/mL) and 2 mM of L-glutamine. Vero cells, obtained from ECACC, were suspended in culture medium and 25 μL was added to 384-well plates (2500 cells/well), which already contain the antiviral compounds. Typically, these plates contain a 4-fold serial dilution of 9 dilution steps of the test compound at 200 times the final concentration in 100% DMSO (200 nL). In addition, each compound concentration is tested in quadruplicate (final concentration range: 25 μM-0.00038 μM). Finally, each plate contains wells which are assigned as virus controls (containing cells and virus in the absence of compound), cell controls (containing cells in the absence of virus and compound) and medium controls (containing medium in the absence of cells, virus and compounds). To the wells assigned as medium control, 25 μL of culture medium was added instead of Vero cells. Once the cells were added to the plates, the plates were incubated for 30 minutes at room temperature to allow the cells to distribute evenly within the wells. Next, the plates were incubated in a fully humidified incubator (37° C., 5% CO2) until the next day. Then, DENV-2 strain 16681, labeled with eGFP, was added at a multiplicity of infection (MOI) of 0.5. Therefore, 15 μL of virus suspension was added to all the wells containing test compound and to the wells assigned as virus control. In parallel, 15 μL of culture medium was added to the medium and cell controls. Next, the plates were incubated for 3 days in a fully humidified incubator (37° C., 5% CO2). At the day of the read out, the eGFP fluorescence was measured using an automated fluorescence microscope at 488 nm (blue laser). Using an in-house LIMS system, inhibition dose response curves for each compound were calculated and the half maximal effective concentration (EC50) was determined. Therefore, the percent inhibition (I) for every test concentration is calculated using the following formula: I=100*(ST−SCC)/(SVC−SCC); ST, SCC and SVC are the amount of eGFP signal in the test compound, cell control and virus control wells, respectively. The EC50 represents the concentration of a compound at which the virus replication is inhibited with 50%, as measured by a 50% reduction of the eGFP fluorescent intensity compared to the virus control. The EC50 is calculated using linear interpolation (Table 1).

The next data set is described as follows: in vitro. Format: cell-based. The following applies: African green monkey, CC50. The procedure: In parallel, the toxicity of the compounds was assessed on the same plates. Once the read-out for the eGFP signal was done, 10 μL of resazurin, a cell viability stain, was added to all wells of the 384-well plates. The resazurin assay is based on the reduction of the blue resazurin by NADH, produced by the cells, into the highly fluorescent product, resorufin. The formation of pink fluorescent resorufin is directly related to the number of viable cells in the well. The plates were incubated for an additional 5 hours in a fully humidified incubator (37° C., 5% CO2). Next, the plates were measured on an Infinite reader (Tecan) using an excitation wavelength of 530 nm. The half maximal cytotoxic concentration (CC50) was also determined, defined as the concentration required to reduce the resazurin conversion by 50% compared to that of the cell control wells (Table 1). Finally, the selectivity index (SI) is determined for the compounds, which is calculated as followed: SI=CC50/EC50.

The structures appear in SMILES notation.

The term EC50 denotes the concentration giving half of the maximal effect. What is called melting point is the temperature of the solid-liquid transition. A word on the CC50: it is the concentration that lowers cell viability or growth by half. Read a low CC50 as harm at low concentration.

With `COc1cc(NC(C(=O)c2c[nH]c3c(C)c(Cl)ccc23)c2ccc(Cl)cc2OC)cc(OCCO)c1` (racemic) [Compound 3, 2-(4-chloro-2-methoxyphenyl)-1-(6-chloro-7-methyl-1H-indol-3-yl)-2-((3-(2-hydroxyethoxy)-5-methoxyphenyl)amino)ethanone], the melting point was 220 °C. Also, the EC50 in data set [1] was found to be 0.72 nM. Further, the midpoint of cytotoxicity in “in vitro”, the CC50, lay at 5500 nM.

Regarding `COc1cc(NC(C(=O)c2c[nH]c3cc(Cl)ccc23)c2ccc(Cl)cc2OC)cc(OCCO)c1` (racemic) [Compound 4, 1-(6-chloro-1H-indol-3-yl)-2-(4-chloro-2-methoxyphenyl)-2-((3-(2-hydroxyethoxy)-5-methoxyphenyl)amino)ethanone], the melting point worked out at 154 °C. In data set [1], this compound had an EC50 of 1.4 nM. This compound had a 50% cytotoxic concentration (CC50) in the data set “in vitro” of 6300 nM.

Source of the values: patent US9944598B2, “Mono- or di-substituted indole derivatives as dengue viral replication inhibitors” (priority 2014, dated 2018).
